Data reported in patent publication US20200199523A1, “MEDIA FOR MICROORGANISM CULTURE AND RELATED COMPOSITIONS AND METHODS” (Massachusetts Institute of Technology, priority 2017, published 2020).

Legend:
wildtype Pichia pastoris = assay: Batch cultivation growth (optical density, growth rate) in microtiter plates and shake flasks; assay type: cell-based, Komagataella phaffii; conditions: for Growth rate μ in supplemented defined media: nutrient screening, supplement added to defined media; for Effect on growth rate of reducing the element's concentration by 50%: basal salts medium (FIG. 2A); for Effect of supplement on growth rate: nutrient screening in defined media
Experimental: Batch cultivations were conducted at two scales: microtiter plates and shake flasks. Microtiter plates with 24 wells and pyramidal bottoms were purchased from Axygen. Each well had 10 mL total volume and cultivations used a 3 mL working volume. Plates were incubated in a Liconic LPX44 shaker at 600 rpm. Temperature was not controlled but remained at room temperature, between 21 and 24° C. […] The shake rate was set to 300 rpm and the temperature was controlled at 25° C. […]
All chemicals used in media formulations were purchased from Sigma. Complex media was purchased from Teknova. […] Glycerol was added at a starting concentration of 1% by volume. Media was autoclaved and filtered through a […] bottletop filter before use. PTM1 salts were added after filtration to avoid loss of trace elements through precipitation.
Biomass was measured by optical density. Shake flask samples were measured on a Genesys 10 Bio spectrophotometer. Microtiter plate samples were measured using a Tecan Infinite M200 Pro plate reader and converted to the same scale as the spectrophotometer samples using a calibration curve. Growth rates were calculated by linear regression between the natural logarithm of the optical density and the cultivation time in hours. The regression was run on time points during the exponential growth phase unless otherwise specified.

[1] = tested on: K. phaffii strain modified to express human growth hormone (hGH); assay: Perfusion cultivation: biomass (wet cell weight), hGH titer, productivity; assay type: cell-based
Experimental: Experiments were conducted using a K. phaffii strain modified to express human growth hormone (hGH) under the control of the AOX1 promoter. For biomass accumulation, cells were grown in medium containing per liter: 40 mL glycerol, 12 g KH2PO4, 4.7 g MgSO4.7H2O, 0.36 g CaCl2.2H2O, 4.96 g (NH4)2SO4, 1.46 g L-glutamine, 1.74 g L-arginine, 3.3 mL of vitamin solution, 10 mL of lipids solution, and 4.35 mL of PTM1 salts (Amresco J241). For protein production, cells were grown in medium containing per liter: 12 g KH2PO4, 4.7 g MgSO4.7H2O, 0.36 g CaCl2.2H2O, 13.21 g (NH4)2SO4, 2.92 g L-glutamine, 3.3 mL of vitamin solution, 10 mL of lipids solution, and 4.35 mL of PTM1 salts (Amresco J241). Both media were adjusted to pH 6.5 using 5M KOH. The vitamin solution consisted of per liter: 7.5 g myo-inositol, 0.3 g thiamine HCl, 0.3 g calcium pantothenate, 0.3 g nicotinic acid, 0.3 g pyroxidine HCl, 0.015 g biotin, and 0.06 g para-aminobenzoic acid. The lipids solution consisted of per liter: 2 mg arachidonic acid, 10 mg linoleic acid, 10 mg linolenic acid, 10 mg myristic acid, 10 mg oleic acid, 10 mg palmitic acid, 10 mg stearic acid, 2.2 g Tween-80, 70 mg tocopherol acetate, and 100 g of Pluronic F-68. All chemicals were purchased from Sigma. The medium was filtered before use.
Cultivations were conducted in 0.5 L Infors HT bioreactors adapted for operation in perfusion mode. Cultures were inoculated directly from a frozen cell stock into 0.44 L of medium. Cells were grown for approximately 32 hours in perfusion mode with medium containing glycerol fed at a rate of 0.5 mL/minute. […] The cultures were induced by switching the feed to production medium containing methanol, which was also fed at 0.5 mL/minute. Bioreactor temperature was automatically controlled at 25° C. The pH was controlled at 6.5 using 5M KOH.
For the studies of higher methanol feed rate, two cultivations were conducted. The production medium contained 15% v/v methanol. All other fermentation conditions were as described above.
Biomass was measured by wet cell weight. Five hundred microliters of sample were spun in a Costar Spin-X centrifuge filter tube for 10 minutes at 1500 g and the pellet was weighed. hGH concentrations in the supernatants were quantified by RPLC and by gel electrophoresis (Perkin Elmer GXII). Concentrations estimated by the two methods were highly consistent (slope=0.98, R^2=0.95).
Cell-specific productivity was calculated according to the following system of equations (Amos Lu, unpublished): […]
where qp is the cell-specific productivity, μ is the growth rate, F is the perfusion rate, X is the biomass concentration, and P is the protein titer.

[2] = tested on: P. pastoris gene expression; assay: RNA-Seq gene expression and ssGSEA at stages of perfusion cultivation; assay type: cell-based, K. phaffii
Experimental: To study gene expression under perfusion, seven cultivations were conducted (FIG. 14B). The production medium contained 1.5% v/v methanol. For four of the bioreactors (labeled 1, 3, 5A, 6A), the cultures were induced immediately after the DO spike. For the other three reactors (labeled 4, 5, 6), glycerol feed was maintained after the DO spike for 4 hours and then the cultures were induced with methanol. There were no significant differences between the biomass, hGH titers, or transcriptomic data between the two conditions (FIG. 15), so they were treated as biological replicates for RNA-Seq analysis.
RNA was isolated from samples taken at six time points during the cultivation (FIG. 14B). Samples were taken from all reactors after one day of exponential growth on glycerol (G1) and immediately after the DO spike (G2). […]
RNA was extracted using the Qiagen RNeasy kit (cat. no. 74104). […] All libraries were sequenced on the Illumina NextSeq platform to generate 75-nucleotide paired-end reads at a read depth of at least 3 million reads per sample. The reads were aligned to the previously reported genome sequence for this strain (Love et al., 2016) using RSEM version 1.2.15 with bowtie2 version 2.2.3. The reads were also aligned to the sequence for hGH using BWA (version 0.7.12). […]

[3] = tested on: P. pastoris strains expressing hGH, G-CSF, IFN; assay: Amino acid supplementation of defined media: recombinant protein expression (GXII, SDS-PAGE, ELISA); assay type: cell-based; conditions: alone or with other amino acids, IFN (FIG. 10-13)
Experimental: Here, a study is presented of the impact of adding specific amino acids on recombinant protein titers. To uncover a general formulation, three P. pastoris strains were studied, each expressing a different heterologous protein.
Expression of three recombinant proteins, hGH, G-CSF, and IFN, by P. pastoris grown in media with different individual amino acids, 12.5 mM each. Protein concentrations measured by GXII, samples taken 24 hours after methanol induction (FIG. 10).
(FIG. 11). hGH expression by P. pastoris grown in media with different combinations of amino acids, each 12.5 mM total, based on initial individual amino acid screenings is shown. hGH concentrations were measured by GXII, samples taken 24 hours after methanol induction.
In FIG. 12, the effect of Asparagine, Glutamine, and Arginine on protein expression is examined. The starred media conditions are as follows; Glutamine, Arginine, Glutamine+Arginine (RDM), Asparagine, Glutamine+Asparagine, and all 20 amino acids. In all media conditions, total amino acid concentration is normalized to 25 mM.
hGH production was measured in media containing individual or combinations of amino acids. The total concentration in (mM) of amino acids was 12.5, 25, or 50 mM. The results were measured by ELISA, and each value is the average of three technical replicates.

[4] = perfusion, 15% v/v vs 1.5% v/v methanol

## CC(O)C(=O)O (stereo not shown) [Lactate]
Wildtype Pichia pastoris
  Growth rate μ in supplemented defined media: 0.186 h⁻¹

## S1SSSSSSS1 [sulfur]
Wildtype Pichia pastoris
  Effect on growth rate of reducing the element's concentration by 50%: no significant effect

## CO [methanol]
[1]; beginning of the cultivation (FIG. 23C)
  Cell-specific productivity relative to low-feed case: double
[1]; perfusion, 15% v/v methanol, day 6 of production
  Biomass concentration: 530 g/L WCW
[1]; perfusion, 15% v/v methanol, end of the cultivation
  hGH titer: 2 g/L
[1]; [4]
  Cell density relative to low-methanol feeding experiments: over four times greater
  hGH titers relative to lower methanol feed rate: over six times higher
[1]; perfusion, methanol feed rate increased by a factor of ten (15% v/v)
  Average growth rate: 0.01 h⁻¹
[1]; perfusion, on average (FIG. 23D)
  Volumetric productivity relative to lower methanol feed: 3-4 times
[2]; first 4 hours after induction
  Increase in expression of genes involved in methanol metabolism vs glycerol: 35 fold
[2]; later in methanol feeding
  Increase in expression of genes involved in methanol metabolism vs glycerol: 100 fold

## N [ammonium]
Wildtype Pichia pastoris
  Effect on growth rate of reducing the element's concentration by 50%: significantly improved the growth rate
Wildtype Pichia pastoris; basal salts medium (FIG. 2B)
  Concentration at which it became limiting for growth: 12.5 mM

## OC[C@H]1O[C@H](O[C@H]2O[C@H](CO)[C@@H](O)[C@H](O)[C@H]2O)[C@H](O)[C@@H](O)[C@@H]1O [Trehalose]
Wildtype Pichia pastoris
  Growth rate μ in supplemented defined media: 0.193 h⁻¹

## C[C@H](N)C(=O)O [Alanine]
Wildtype Pichia pastoris
  Effect of supplement on growth rate: did not
  Growth rate μ in supplemented defined media: 0.195 h⁻¹

## NC(=O)CC[C@H](N)C(=O)O [Glutamine]
Wildtype Pichia pastoris
  Growth rate μ in supplemented defined media: 0.217 h⁻¹
[3]
  Effect on protein production: increases protein production

## NC(=O)C[C@H](N)C(=O)O [asparagine]
[3]
  Effect on protein production: increases protein production

## N=C(N)NCCC[C@H](N)C(=O)O [Arginine]
Wildtype Pichia pastoris
  Effect of supplement on growth rate: significant benefit
  Growth rate μ in supplemented defined media: 0.202 h⁻¹
[3]
  Effect on protein production: increases protein production

## phosphate
Wildtype Pichia pastoris
  Effect on growth rate of reducing the element's concentration by 50%: no significant effect

## NCCCC[C@H](N)C(=O)O [Lysine]
Wildtype Pichia pastoris
  Effect of supplement on growth rate: did not
  Growth rate μ in supplemented defined media: 0.196 h⁻¹
